Results as given in patent publication US20070049564A1 (Wyeth, priority 2005, published 2007).
In brackets after ≈: the same amount, converted by molar mass. Like-named read-outs stand apart in the source and are kept apart here.

Legend:
[1] = test system: E. faecium GC 2243; assay: MIC, broth microdilution; conditions: Enterococcus faecium
[2] = test system: E. coli GC 2231; assay: MIC, broth microdilution; conditions: Escherichia coli
[3] = test system: E. coli GC 2234; assay: MIC, broth microdilution; conditions: Escherichia coli
[4] = test system: E. coli GC 2232; assay: MIC, broth microdilution; conditions: Escherichia coli
[5] = test system: Staph.; assay: Range of MIC for Staph. strains, including MRSA; conditions: Staphylococcus aureus
[6] = test system: S. aureus GC 2216; assay: MIC, broth microdilution; conditions: Staphylococcus aureus
[7] = test system: S. pyogenes GC 4563; assay: MIC, broth microdilution; conditions: Streptococcus pyogenes
[8] = test system: S. aureus GC 6335; assay: MIC, broth microdilution; conditions: Staphylococcus aureus
[9] = test system: E. coli GC 2233; assay: MIC, broth microdilution; conditions: Escherichia coli
[10] = test system: S. aureus GC 6469; assay: MIC, broth microdilution; conditions: Staphylococcus aureus
[11] = test system: S. aureus GC 6466; assay: MIC, broth microdilution; conditions: Staphylococcus aureus
[12] = test system: E. coli; assay: Range of MIC for E. coli strains; conditions: Escherichia coli
[13] = test system: E. coli GC 2270; assay: MIC, broth microdilution; conditions: Escherichia coli
[14] = test system: P. aeruginosa GC 2214; assay: MIC, broth microdilution; conditions: Pseudomonas aeruginosa
[15] = test system: E. coli GC 2271; assay: MIC, broth microdilution; conditions: Escherichia coli
[16] = test system: E. coli GC 3226; assay: MIC, broth microdilution; conditions: Escherichia coli
[17] = test system: E. coli GC 2203; assay: MIC, broth microdilution; conditions: Escherichia coli
[18] = test system: E. coli GC 2236; assay: MIC, broth microdilution; conditions: Escherichia coli
[19] = test system: E. faecium GC 4556; assay: MIC, broth microdilution; conditions: Enterococcus faecium
[20] = test system: E. faecalis GC 2265; assay: MIC, broth microdilution; conditions: Enterococcus faecalis

MIC ([1]; GC2243, read-out: MINIMAL INHIBITORY CONCENTRATION MIC, Human Serum): 0.25 µg/mL (≈ 0.336 µM)
MIC ([1]; GC2243, read-out: MINIMAL INHIBITORY CONCENTRATION MIC, Mouse Serum): 0.25 µg/mL (≈ 0.336 µM)
MIC ([1]; GC2243, read-out: MINIMAL INHIBITORY CONCENTRATION MIC, Water): 0.5 µg/mL (≈ 0.672 µM)
MIC ([2]; GC2231, read-out: MINIMAL INHIBITORY CONCENTRATION MIC, Human Serum): 16 µg/mL (≈ 21.5 µM)
MIC ([2]; GC2231, read-out: MINIMAL INHIBITORY CONCENTRATION MIC, Mouse Serum): 1 µg/mL (≈ 1.34 µM)
MIC ([2]; GC2231, read-out: MINIMAL INHIBITORY CONCENTRATION MIC, Water): 64 µg/mL (≈ 86 µM)
MIC ([3]; GC2234, read-out: MINIMAL INHIBITORY CONCENTRATION MIC, Human Serum): 8 µg/mL (≈ 10.8 µM)
MIC ([3]; GC2234, read-out: MINIMAL INHIBITORY CONCENTRATION MIC, Mouse Serum): 0.5 µg/mL (≈ 0.672 µM)
MIC ([3]; GC2234, read-out: MINIMAL INHIBITORY CONCENTRATION MIC, Water): 16 µg/mL (≈ 21.5 µM)
MIC ([4]; GC2232, read-out: MINIMAL INHIBITORY CONCENTRATION MIC, Human Serum): 8 µg/mL (≈ 10.8 µM)
MIC ([4]; GC2232, read-out: MINIMAL INHIBITORY CONCENTRATION MIC, Mouse Serum): 0.5 µg/mL (≈ 0.672 µM)
MIC ([4]; GC2232, read-out: MINIMAL INHIBITORY CONCENTRATION MIC, Water): 32 µg/mL (≈ 43 µM)
MIC ([5]; MRSA, read-out: Range of MIC, Staph (Mouse Serum)): 0.25 to 1 µg/mL (≈ 0.336 to 1.34 µM)
MIC ([5]; MRSA, read-out: Range of MIC, Staph (Water)): 0.5 to 2 µg/mL (≈ 0.672 to 2.69 µM)
MIC ([5]; read-out: Minimum inhibitory concentration (MIC), Staph (Human Serum)): 0.5 to 2 µg/mL (≈ 0.672 to 2.69 µM)
MIC ([5]; read-out: Minimum inhibitory concentration (MIC), Staph (Water)): 0.5 to 2 µg/mL (≈ 0.672 to 2.69 µM)
MIC ([6]; GC2216, read-out: MINIMAL INHIBITORY CONCENTRATION MIC, Human Serum): 0.5 µg/mL (≈ 0.672 µM)
MIC ([6]; GC2216, read-out: MINIMAL INHIBITORY CONCENTRATION MIC, Mouse Serum): 0.5 µg/mL (≈ 0.672 µM)
MIC ([6]; GC2216, read-out: MINIMAL INHIBITORY CONCENTRATION MIC, Water): 1 µg/mL (≈ 1.34 µM)
MIC ([7]; GC4563, read-out: MINIMAL INHIBITORY CONCENTRATION MIC, Human Serum): 0.25 µg/mL (≈ 0.336 µM)
MIC ([7]; GC4563, read-out: MINIMAL INHIBITORY CONCENTRATION MIC, Mouse Serum): 0.12 µg/mL (≈ 0.161 µM)
MIC ([7]; GC4563, read-out: MINIMAL INHIBITORY CONCENTRATION MIC, Water): 0.25 µg/mL (≈ 0.336 µM)
MIC ([8]; GC6335, read-out: MINIMAL INHIBITORY CONCENTRATION MIC, Human Serum): 0.5 µg/mL (≈ 0.672 µM)
MIC ([8]; GC6335, read-out: MINIMAL INHIBITORY CONCENTRATION MIC, Mouse Serum): 0.5 µg/mL (≈ 0.672 µM)
MIC ([8]; GC6335, read-out: MINIMAL INHIBITORY CONCENTRATION MIC, Water): 1 µg/mL (≈ 1.34 µM)
MIC ([9]; GC2233, read-out: MINIMAL INHIBITORY CONCENTRATION MIC, Human Serum): 16 µg/mL (≈ 21.5 µM)
MIC ([9]; GC2233, read-out: MINIMAL INHIBITORY CONCENTRATION MIC, Mouse Serum): 1 µg/mL (≈ 1.34 µM)
MIC ([9]; GC2233, read-out: MINIMAL INHIBITORY CONCENTRATION MIC, Water): 32 µg/mL (≈ 43 µM)
MIC ([10]; GC6469, read-out: MINIMAL INHIBITORY CONCENTRATION MIC, Human Serum): 1 µg/mL (≈ 1.34 µM)
MIC ([10]; GC6469, read-out: MINIMAL INHIBITORY CONCENTRATION MIC, Mouse Serum): 1 µg/mL (≈ 1.34 µM)
MIC ([10]; GC6469, read-out: MINIMAL INHIBITORY CONCENTRATION MIC, Water): 2 µg/mL (≈ 2.69 µM)
MIC ([11]; GC6466, read-out: MINIMAL INHIBITORY CONCENTRATION MIC, Human Serum): 0.5 µg/mL (≈ 0.672 µM)
MIC ([11]; GC6466, read-out: MINIMAL INHIBITORY CONCENTRATION MIC, Mouse Serum): 0.5 µg/mL (≈ 0.672 µM)
MIC ([11]; GC6466, read-out: MINIMAL INHIBITORY CONCENTRATION MIC, Water): 0.5 µg/mL (≈ 0.672 µM)
MIC ([12]; 20 h, read-out: Range of MIC, E. coli (Mouse Serum)): 0.25 to 1 µg/mL (≈ 0.336 to 1.34 µM)
MIC ([12]; read-out: Minimum inhibitory concentration (MIC), E. coli (Human Serum)): 8 to 16 µg/mL (≈ 10.8 to 21.5 µM)
MIC ([12]; read-out: Minimum inhibitory concentration (MIC), E. coli (water)): 16 to 64 µg/mL (≈ 21.5 to 86 µM)
MIC ([12]; read-out: Range of MIC, E. coli (Water)): 16 to 64 µg/mL (≈ 21.5 to 86 µM)
MIC ([13]; GC2270, read-out: MINIMAL INHIBITORY CONCENTRATION MIC, Human Serum): 8 µg/mL (≈ 10.8 µM)
MIC ([13]; GC2270, read-out: MINIMAL INHIBITORY CONCENTRATION MIC, Mouse Serum): 1 µg/mL (≈ 1.34 µM)
MIC ([13]; GC2270, read-out: MINIMAL INHIBITORY CONCENTRATION MIC, Water): 32 µg/mL (≈ 43 µM)
MIC ([14]; GC2214, read-out: MINIMAL INHIBITORY CONCENTRATION MIC, Human Serum): > 64 µg/mL
MIC ([14]; GC2214, read-out: MINIMAL INHIBITORY CONCENTRATION MIC, Mouse Serum): 64 µg/mL (≈ 86 µM)
MIC ([14]; GC2214, read-out: MINIMAL INHIBITORY CONCENTRATION MIC, Water): > 64 µg/mL
MIC ([15]; GC2271, read-out: MINIMAL INHIBITORY CONCENTRATION MIC, Human Serum): 8 µg/mL (≈ 10.8 µM)
MIC ([15]; GC2271, read-out: MINIMAL INHIBITORY CONCENTRATION MIC, Mouse Serum): 0.5 µg/mL (≈ 0.672 µM)
MIC ([15]; GC2271, read-out: MINIMAL INHIBITORY CONCENTRATION MIC, Water): 16 µg/mL (≈ 21.5 µM)
MIC ([16]; GC3226, read-out: MINIMAL INHIBITORY CONCENTRATION MIC, Human Serum): 16 µg/mL (≈ 21.5 µM)
MIC ([16]; GC3226, read-out: MINIMAL INHIBITORY CONCENTRATION MIC, Mouse Serum): 1 µg/mL (≈ 1.34 µM)
MIC ([16]; GC3226, read-out: MINIMAL INHIBITORY CONCENTRATION MIC, Water): 32 µg/mL (≈ 43 µM)
MIC ([17]; GC2203, read-out: MINIMAL INHIBITORY CONCENTRATION MIC, Human Serum): 16 µg/mL (≈ 21.5 µM)
MIC ([17]; GC2203, read-out: MINIMAL INHIBITORY CONCENTRATION MIC, Mouse Serum): 1 µg/mL (≈ 1.34 µM)
MIC ([17]; GC2203, read-out: MINIMAL INHIBITORY CONCENTRATION MIC, Water): 32 µg/mL (≈ 43 µM)
MIC ([18]; GC2236, read-out: MINIMAL INHIBITORY CONCENTRATION MIC, Human Serum): 16 µg/mL (≈ 21.5 µM)
MIC ([18]; GC2236, read-out: MINIMAL INHIBITORY CONCENTRATION MIC, Mouse Serum): 1 µg/mL (≈ 1.34 µM)
MIC ([18]; GC2236, read-out: MINIMAL INHIBITORY CONCENTRATION MIC, Water): 32 µg/mL (≈ 43 µM)
MIC ([19]; GC4556, read-out: MINIMAL INHIBITORY CONCENTRATION MIC, Human Serum): 2 µg/mL (≈ 2.69 µM)
MIC ([19]; GC4556, read-out: MINIMAL INHIBITORY CONCENTRATION MIC, Mouse Serum): 0.5 µg/mL (≈ 0.672 µM)
MIC ([19]; GC4556, read-out: MINIMAL INHIBITORY CONCENTRATION MIC, Water): 2 µg/mL (≈ 2.69 µM)
MIC ([20]; GC2265, read-out: MINIMAL INHIBITORY CONCENTRATION MIC, Human Serum): 0.5 µg/mL (≈ 0.672 µM)
MIC ([20]; GC2265, read-out: MINIMAL INHIBITORY CONCENTRATION MIC, Mouse Serum): 1 µg/mL (≈ 1.34 µM)
MIC ([20]; GC2265, read-out: MINIMAL INHIBITORY CONCENTRATION MIC, Water): 4 µg/mL (≈ 5.38 µM)
Compound: CC(C)CC(=O)OCOC(=O)N(CC(=O)Nc1cc(N(C)C)c2c(c1O)C(=O)C1=C(O)[C@]3(O)C(=O)C(C(N)=O)=C(O)[C@@H](N(C)C)[C@@H]3C[C@@H]1C2)C(C)(C)C [Example 53, ({[(2-{[(5aR,6aS,7S,10aS)-9-(aminocarbonyl)-4,7-bis(dimethylamino)-1,8,10a,11-tetrahydroxy-10,12-dioxo-5,5a,6,6a,7,10,10a,12-octahydrotetracen-2-yl]amino}-2-oxoethyl)(tert-butyl)amino]carbonyl}oxy)methyl 3-methylbutanoate]
